The subject of experiment [1] is OT-I+ CD8+ T cells. As to the kind of experiment: proliferation of activated T cells (total number of live cells by flow cytometry). Type of experiment: cell-based, mouse. The settings on record: FIG. 3. As for the experimental part: T cells treated with RGFP966 also show increased proliferation relative to untreated T cells. FIG. 3 is a bar chart the total number of live cells detected in flow cytometry for activated OT-I^+ CD8^+ T cells that have been treated with 10 μM, 1 μM RGFP966, and no RGFP966 (vehicle control).
A general note: A flow cytometer gives signals particle by particle.

Experiment [2] deals with OT-I+ CD8+ T cells. As to the kind of experiment: immunoblot time course of sorted CD8+ T cells after activation. The conditions noted are these: 3 μM. It counts as cell-based, mouse. As for the experimental part:
Analysis was first made on expression of HDAC3 and its known binding partners, global histone acetylation levels, and known regulatory transcription factors of CD8^+ T cell effector function across a time course of T cell activation in the absence or presence of the HDAC3 inhibitor RGFP966.
To do so, OT-I^+ CD8^+ T cells were activated in vitro for 7 days, as described in FIG. 1 and Example 1 above. Activated cells received either 0 μM or 3 μM of HDAC3 inhibitor RGF966. Sorted CD8^+ T cells from the in vitro co-cultures were then assessed for HDAC3 and various markers by immunoblot at 2, 22, 72, 120, and 168 hours after activation (see immunoblot of FIG. 9A). The markers assessed included: NCOR1 and NCOR2 (part of the HDAC3/NCOR complex): BCL-6, T-BET, and BLIMP-1 (markers of the BCL-6-5-bet pathway): GAPDH and LAMIN BI (protein loading controls): acetylated residues H3K9 and H3K27, and histone H3 (markers of histone H3 acetylation).
(In western blotting, separated proteins are transferred to a membrane and probed.)

Another experiment concerns H3K27-ac in CD8+ T cells. In words: H3K27-ac ChIP-sequencing of activated CD8+ T cells. Type of experiment: cell-based, mouse. The conditions noted are these: days 5 and 7 post-activation. As to the method: ChIP-sequencing was then performed to survey the genomic landscape of H3K27 acetylation in the absence or the presence of HDAC3 activity on days 5 and 7 post-activation using the same in vitro activation co-culture system as in as described in FIG. 1 and Example 1 above.
FIGS. 9C-9H show H3K27-ac ChIP-sequence tracks, from top to bottom: naïve CD8^+ T cells (day 0): control-treated cells, day 5 post-activation: RGFP966-treated cells, day 5 post-activation: control-treated cells, day 7 post-activation: RGFP966-treated cells, day 7 post-activation. Arrows under gene names indicate direction of transcription. Tracks were visualized with the IGV genome browser (Broad Institute, MA).

The test system of the next experiment is human CD8+ T cells. As to the kind of experiment: activation of human CD8+ T cells with anti-CD3 and anti-CD28, flow cytometry. It counts as cell-based. The conditions noted are these: 10 μM; 7 days. As to the method: Further investigation was conducted to discover whether the augmented cytotoxic effector phenotype observed in mouse CD8^+ T cells post-activation with HDAC3 inhibition was also true in human CD8^+ T cells. Total CD8^+ T cells were negatively isolated from the peripheral blood of healthy human donors, and activated in vitro using plate-bound anti-CD3 and soluble anti-CD28 antibodies in the presence or absence of 0 μM (vehicle control) or 10 μM RGFP966. Following 7 days of in vitro activation, without additional IL-2 supplementation, CD8^+ T cells were analyzed by flow cytometry for expression of markers associated with T cell activation, effector cytokines, and cytotoxicity. The results are summarized in the graphs of FIG. 13A.

Experiment [3] has as its system H3K9-Ac and H3K27-Ac in CD8+ T cells. As to the kind of experiment: ChIP-qPCR for H3K9ac and H3K27ac at promoter regions of 32 effector function genes. It counts as cell-based, mouse. The conditions noted are these: 3 μM, 5 days. As to the method:
Chromatin was extracted from sorted CD8^+ T cells activated with or without RGFP966 for 5 days as described in FIG. 1 and Example 1 above, and chromatin immunoprecipitation (ChIP) was performed for H3K9ac and H3K27 markers.
Immunoprecipitated chromatin was analyzed using quantitative real-time PCR (qPCR) with primer probes for the promoter regions of a custom set of 32 genes known to be associated with various aspects of CD8^+ T cell effector function (effector cytokines, cytotoxicity, regulatory transcription factors, as well as positive and negative controls for data quality control). […] Histogram bars are presented in pairs for each marker, with the left hand bar of each pair (gray) representing data from untreated CD8^+ T cells and the right hand bar of each pair (black) representing data from CD8^+ T cells treated with 3 μM RGF966.
In general terms: Real-time PCR tracks product formation cycle by cycle.

Another experiment deals with other HDACs. The conditions noted are these: reported; cited from earlier work.

Where only a bound is given, the exact number is not on record here.

On to `Nc1cc(F)ccc1NC(=O)/C=C/c1cnn(C/C=C/c2ccccc2)c1` [RGFP966], for which the “T cell proliferation (total number of live cells)” value in the experiment with OT-I+ CD8+ T cells [1] (1 μM) was “increasing T cell proliferation over vehicle control”. Besides, the “T cell proliferation (total number of live cells)” value in the experiment with OT-I+ CD8+ T cells [1] (10 μM) is “increasing T cell proliferation as compared to T cells treated with 1 μM RGFP966”. Also, in the experiment on OT-I+ CD8+ T cells [2], the “levels of BCL-6” value is reported as “no significant changes” and the “levels of BLIMP-1 (PRDM1)” value is “no significant changes”. The “global histone acetylation at H3K9” value with OT-I+ CD8+ T cells [2] (after 72 hours post-activation) was “persistently high after 72 hours”. In addition, the HDAC3 protein level result in the experiment with OT-I+ CD8+ T cells [2] (immunoblot 2-168 hours) was “does not result in loss of HDAC3 protein”. Moreover, the “expression of T-BET (TBX21)” value in the experiment on OT-I+ CD8+ T cells [2] (relative to control-treated cells) was “increased in the drug-treated cells relative to control-treated cells”. The NCOR2 level entry with OT-I+ CD8+ T cells [2] (starting at 120 hours post-activation) is recorded as “almost completely absent”. Further, in the experiment on H3K27-ac in CD8+ T cells, the “H3K27-ac at GzmB, Fasl, ID2, PRDM1 and TBX21” value is recorded as “increased H3K27-ac”; the “H3K27-ac at RUNX3” value is “increased H3K27-ac”. Also, the “H3K27ac at loci of effector cytokines, EOMES and BCL6” value with H3K27-ac in CD8+ T cells (data not shown) is recorded as “no significant changes”. Also, in the experiment with human CD8+ T cells, the “expression of CD25” value was “upregulation”, the “expression of CD44” value is reported as “upregulation” and the “expression of granzyme B” value is on record as “upregulation”. The “histone acetylation at GZMB, FASL, TBX21, PRDM1 and ID2” value in experiment [3] is on record as “most significant changes in histone acetylation”. Also, the “H3K9 and H3K27 acetylation at promoters of IFN-γ, TNF-α and IL-2” value in experiment [3] (not always significant) is “generally had increased H3K9 and H3K27 acetylation”. The “concentration range at which other HDACs are not inhibited” value in the experiment with other HDACs is less than 15 µM.

Source of the values: patent publication US12440451B2, “Compositions and methods using an epigenetic inhibitor” (DANA-FARBER CANCER INSTITUTE, INC., priority 2017, dated 2025).
